From patent US6632449B2, “Compositions and kits comprising a defined boron compound and methods of their preparation” (The Procter & Gamble Co., priority 2001, dated 2003)

Assay: physchem
Conditions: saturated aqueous solution of the boron compound
Description: The pKa of the boron compound utilized herein may be determined as follows. […] Using an auto titrator, titrate the solution according to standard methods. The pKa of the boron compound is the pH at which the inflection point occurs in the resulting titration curve.

OB(O)O [boric acid]
pKa: ~9.2
